Test results: patent US20230310573A1, “Stabilized Vaccine Compositions” (priority 2020, published 2023)
Like-named read-outs stand apart in the source and are kept apart here.

Tests used:
Format in all cases: physicochemical
[1] = target: T1, RSV pre-fusion F protein of SEQ ID NO: 10 (Human respiratory syncytial virus A, UniProt P03420, D486N/DEL108-136/I379V/M447V/N67I/P102A/S215P); assay: Thermo-stability (Tm50) of RSV pre-fusion F by Differential Scanning Fluorimetry (DSF)
T1 construct: made in house
Method: Thermo-stability of the RSV pre-fusion F protein of SEQ ID NO: 10 was determined by Differential Scanning Fluorimetry (DSF) by monitoring the fluorescent emission of Sypro Orange Dye (ThermoFisher Scientific) in a 96 well optical qPCR plate. Inhibitors were diluted in DMSO prior to the experiment. Same amount of DMSO was added to pre-fusion F protein without inhibitor. To each well, 5 μl of 20× Sypro orange solution was added. Upon gradual increase of the temperature, from 25° C. to 95° C. (0.015° C./s), the polypeptides unfold and the fluorescent dye binds to the exposed hydrophobic residues leading to a characteristic change in emission. The melting curves were measured using a ViiA7 real time PCR machine (Applied Biosystems). The 1st derivative of the fluorescent signal (a.u.) versus the temperature (° C.) of three individual samples (technical triplicate), as well as the averaged melting curve, were plotted with Graphpad Prism software (Dan Diego, CA, US). From the averaged melting curve, the Tm50 was deducted (lowest point on the curve). The Tm50 values represent the temperature at which 50% of the protein is unfolded and thus are a measure for the temperature stability of the polypeptides. The increase of the Tm50 is reported as difference of the Tm50 of pre-fusion F protein with stabilizing antiviral compound compared with the Tm50 of pre-fusion F protein with only addition of DMSO (i.e. without antiviral compound).
(§1) Vials were frozen to −70° C. in 24 hours under controlled conditions. Samples were subsequently thawed to RT and analyzed by analytical Size Exclusion Chromatography (SEC) to measure loss of RSV F trimer compared the sample that was kept at 4° C. In addition, the dialyzed materials with and without stabilizing compound III were evaluated in DSF to measure the melting temperature. For experimental details see example 2.
as §1, with “Each formulation (pre and post UF/DF samples) was diluted to 0.3 mg/ml. 0.75 ml of each formulation was filled in glass injection vials with rubber stopper and sealed with aluminum caps. Vials” for “Vials”, “different formulations” for “dialyzed materials”
Each formulation (pre and post dialysis samples) was diluted to 0.3 mg/ml. 0.75 ml of each formulation was filled in glass injection vials with rubber stopper and sealed with aluminum caps. Vials were slowly frozen to −70° C. in 24 hours. Samples were subsequently thawed to RT and analyzed by analytical Size Exclusion Chromatography (SEC) to measure loss of RSV F trimer compared the sample that was kept at 4° C. In addition, the different formulations with and without compound III were evaluated in DSF to measure the melting temperature. For experimental details see example 2.

[2] = target: T1, RSV pre-fusion F protein of SEQ ID NO: 10; settings: phosphate buffer (Formulation 1), preF 0.3 mg/ml, 1:3 trimer:compound, RT to −70° C. in 24 hours
Method: The RSV pre-fusion F protein of SEQ ID NO: 10 was diluted to 0.3 mg/ml in phosphate buffer (Formulation 1) and 0.75 ml was filled in glass injection vials with rubber stopper and sealed with aluminum caps. Additionally, protein was diluted in the formulation buffers with inhibitor in a 1:3 trimer:compound ratio. One inhibitor binds one trimer so with a 1:3 ratio there is an excess of inhibitor. […] In 24 hours, samples were cooled down from RT to −70° C. Samples were thawed to RT and analyzed by analytical Size Exclusion Chromatography (SEC) to measure loss of RSV F trimer.
0.75 ml of each formulation was filled in glass injection vials with rubber stopper and sealed with aluminum caps. Additionally, protein was diluted in the formulation buffers and inhibitor was added in a 1:1, 1:3, 1:9, 1:27 and 1:50 trimer: compound ratio. Final compound concentrations were 1.7×10^−6 M, 5.2×10^−6 M, 1.6×10^−5M, 4.6×10^−5, and 8.6×10^−5 M, respectively. Vials were slowly frozen to −70° C. in 24 hours. Samples were subsequently thawed to RT and analyzed by analytical Size Exclusion Chromatography (SEC) to measure loss of RSV F trimer compared the sample that was kept at 4° C.

[3] = target: T2, RSV pre-fusion F (preF) protein of SEQ ID NO: 10 (Human respiratory syncytial virus A, UniProt P03420, D486N/DEL108-136/I379V/M447V/N67I/P102A/S215P)
T2 construct: made in house

[4] = target: T2, RSV pre-fusion F (preF) protein of SEQ ID NO: 10; assay: Dialysis and slow freezing, trimer by analytical SEC
Method: as §1

SMILES: CS(=O)(=O)CCCn1c(Cn2c(=O)n(C3CC3)c3ccncc32)nc2cc(Br)ccc21 [Compound III, 3-[[5-bromo-1-(3-methylsulfonylpropyl)benzimidazol-2-yl]methyl]-1-cyclopropyl-imidazo[4,5-c]pyridin-2-one]
- Tm50 (DSF) after buffer exchange ([1]; 1:50, Formulation 1 and 2 without PS20, AP1): increased the Tm50 irrespective of the buffer
- Tm50 (DSF) after UF/DF ([1]; compound in the protein and in the diavolume): yielded the highest Tm50
- Tm50 (DSF), 1:30 ratio vs 1:3 ratio ([1]; dialysis experiment): yielded a higher Tm50 than a 1:3 ratio
- Tm50 (DSF) vs samples without compound ([1]; pre- and post-dialysis samples): higher
- Tm50 (DSF) over time after dialysis ([1]; stored at 4° C., Day 0, 21, 84): remained relatively constant
- trimer signal lost after slow freeze/thaw (analytical SEC) [2]: 2.0+/−2.0%
- trimer content after heat stress (SEC) ([3]; 6 weeks at 37° C., AP1, formulation 1, formulation 5a, trimer:compound 1:3 and 1:9): trimer content was not changed compared to the control
- aggregation after heat stress (SEC) ([3]; 6 weeks at 47° C., AP1, formulation 1, formulation 5a, trimer:compound 1:3 and 1:9): aggregation was higher for the samples without compound compared to the samples with compound
- formation of protein aggregates in liquid phase (SEC trimer content vs 4° C. control) ([3]; 37° C., up to 26 weeks, different buffers, 1:3 or 1:9): protects from the formation of protein aggregates
- protection from aggregation over time, by ratio ([3]; 37° C., up to 26 weeks, higher ratios (1:9)): best protection from aggregation over time
- protection from aggregation at 37° C. ([3]; AP1, 9, 16 or 26 weeks): did not show protection from aggregation
- trimer content at 37° C. ([3]; Formulation 1, 9, 16 or 26 weeks): improved the trimer content
- trimer content at 37° C. ([3]; Formulation 5a and FB12, 9, 16 or 26 weeks): always improved the trimer content
- trimer after dialysis and slow freezing ([4]; 1:3 and 1:30 trimer:compound): higher than 90%
- aggregation after slow freezing ([4]; pre- and post-dialysis samples, 1:3 and 1:30): protected from aggregation
